Article PMC8422859, “A Novel Oral Arginase 1/2 Inhibitor Enhances the Antitumor Effect of PD-1 Inhibition in Murine Experimental Gliomas by Altering the Immunosuppressive Environment” (Frontiers in Oncology, 2021)

Columns and labels:
[1] = test system: tumor-infiltrating immune cells in GL261 gliomas; experiment: Immune cells in GL261 gliomas (immunohistochemistry, flow cytometry); format: in vivo, mouse
Method: The animals were sacrificed on the day 21 after GL261 tdTomato^+luc^+ cell implantation and perfused with 4% paraformaldehyde in PBS. Brains were removed, post-fixed for 48 h in the same fixative solution and placed in 30% sucrose in PBS at 4°C until the tissue sunk to the bottom of the flask. Tissue was frozen in Tissue Freezing Medium (Jung; Nussloch, Germany) and cut in 12 µm coronal sections using a cryostat. The slides were dried at room temperature for 2 h after being transferred from the -80°C storage. Cryosections were blocked in PBS containing 10% donkey serum and 0.1% Triton X-100 for 2 h and incubated overnight at 4°C with rabbit anti-Iba-1 and goat anti-Arg1 or with rabbit anti-CD8 antibodies. Next, sections were washed in PBS and incubated with corresponding secondary antibodies for 2 h at room temperature. All antibodies were diluted in 0.1% Triton X-100/PBS solution containing 3% donkey serum. Nuclei were counterstained with DAPI (1 µg/mL). Images were obtained using the Olympus microscope (Fluoview, FV10i). For reagent specifications, catalogue numbers, and concentrations, see the Supplementary Table 1. To quantify the tumor size, sections were stained with toluidine blue, and images were acquired using a Leica DM4000B microscope (Leica Microsystems, Wetzlar, Germany). Tumor areas were measured using ImageJ software (NIH, Bethesda, MD, USA) on every sixth brain slice, and tumor volumes were calculated as previously described ([26]).
On day 28 after GL261 tdTomato^+luc^+ cell implantation mice were perfused transcardially with cold phosphate-buffered saline (PBS) to clear away blood cells from the brain. […] Next, cells were collected, washed with PBS and counted using NucleoCounter (Chemometec, Denmark). […]
All antibodies were titrated prior to staining to establish the amount yielding the best stain index. Data were acquired using a BD LSR Fortessa Analyzer cytometer and analyzed with FlowJo software (v. 10.5.3, FlowJo LLC, BD). Gates were set based on FMO (fluorescence minus one) controls and back-gating analysis. […]

ARG1/2 = test system: ARG1/2; set-up: method as in PMID 31278254; conditions: cited from earlier work
recombinant human ARG1 = target: T1, recombinant human ARG1 (Homo sapiens, UniProt P05089); experiment: Recombinant arginase activity assay, hARG1; format: biochemical; conditions: 1 h at 37°C, pH 7.4, 10 mM L-arginine, urea detection; read-out: Inhibition of recombinant hARG1: IC50
T1 construct: made in house; host or cells: E. coli
T1 sequence (P05089 1-322): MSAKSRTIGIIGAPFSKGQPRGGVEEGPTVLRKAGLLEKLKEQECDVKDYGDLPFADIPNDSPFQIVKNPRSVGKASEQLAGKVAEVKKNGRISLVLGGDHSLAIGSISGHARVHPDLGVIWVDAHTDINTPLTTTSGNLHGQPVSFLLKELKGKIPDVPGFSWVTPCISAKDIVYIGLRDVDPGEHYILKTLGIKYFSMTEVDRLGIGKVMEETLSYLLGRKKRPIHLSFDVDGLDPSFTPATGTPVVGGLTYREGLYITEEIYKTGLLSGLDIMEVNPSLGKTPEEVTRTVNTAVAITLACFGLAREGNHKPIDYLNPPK
Method: The inhibitory activity towards hARG1 and hARG2 enzymes was assessed using recombinant enzymes biosynthesized using a prokaryotic expression system (E. coli) and purified by fast protein liquid chromatography (FPLC). Briefly, recombinant enzymes were incubated with the tested compounds for 1 h at 37°C in the reaction buffer (100 mM sodium phosphate buffer, 130 mM NaCl, 1 mg/mL BSA, pH 7.4) containing substrate (10 mM L-arginine hydrochloride) and cofactor (200 µM MnCl2). The assay is based on the detection of urea, which is generated during the conversion of L-arginine into L-ornithine catalyzed by arginases. To visualize the product, we adding a mixture of reagent A (4 mM oPA, 50 mM boric acid, 1 M sulfuric acid, 0.03% Brij-35) and reagent B (4 mM NED, 50 mM boric acid, 1 M sulfuric acid, 0.03% Brij-35) in equal proportions. The absorbance was measured at 515 nm. The urea production in the absence of any tested compound was considered as maximal enzyme activity. The absorbance in the absence of arginase (background) was considered as zero activity. Two reference compounds OAT-81 (ABH, no. 222638-65-5) and OAT-90 (2-amino-6-borono-2-(2-(3-(2,4-dichlorophenyl)propyloamino)ethyl) hexanoic acid, and two novel inhibitors OAT-1617 and OAT-1746 (the last three synthesized at OncoArendi Therapeutics) were tested. Normalized values were analyzed using GraphPad Prism 7.0 software and the IC50 values were determined.

## CN(C)C[C@@H]1CC[C@@H](CCB(O)O)C[C@]1(N)C(=O)O [OAT-1746]
[1]; flow cytometry, day 28
  percentage of microglia (CD11b+CD45low) and blood-derived macrophages (CD11b+CD45high): did not change
[1]; immunohistochemistry, day 21
  accumulation of CD8+ cells: did not affect
  accumulation of Iba1+ and Arg1+ cells in gliomas: did not change
ARG1/2
  inhibition of ARG1/2: low nanomolar concentrations
Recombinant human ARG1
  IC50: 28 nM
